Laboratory results reported in patent publication US7709653B2, “Asymmetric cyanine compounds, their preparation methods and their uses” (Shenzhen Mindray Bio-Medical Electronics Co. Ltd., priority 2008, dated 2010).

What was measured:
[1] = Detection of the absorption peak of the fluorescent dyes (UV-visible spectrophotometer, after standing at different temperatures); assay type: physicochemical; settings: for Maximum absorption peak of the compounds disclosed: methanol/ethylene glycol (50:50 vol/vol), light-proof; for Maximum absorption peak: methanol/ethylene glycol, given with the synthesis example
Protocol: A certain amount of an asymmetric cyanine compound was accurately weighed and sufficiently dissolved in 2.5 mL of methanol/ethylene glycol solution (50:50 vol/vol) to prepare a fluorescent dye solution at a concentration of 5 mM. Four parts of 5 μL aliquots of the fluorescent dye solution were each diluted in 2 mL of methanol/ethylene glycol solution (50:50 vol/vol) and were let stand under a hermetic and light-proof condition at 0° C., 20° C., 40° C. and 60° C. respectively for 48 hours. The maximum absorption peak was detected using a ultraviolet-visible spectrophotometer.

salmon sperm DNA = experiment: Fluorescence intensity of dye in PBS containing salmon sperm DNA; assay type: binding; settings: for Relative fluorescence intensity, after binding DNA: bound with salmon sperm DNA; for Maximum excitation peak of the dye/DNA complexes: room temperature; for Ratio of increase in fluorescence (after vs before binding): salmon sperm DNA in PBS; for Fluorescence emission strength of the dye/DNA complexes: with increase in DNA concentration / on complex formation, PBS
Protocol: A certain amount of Dye-1 was accurately weighed and sufficiently dissolved in 2.5 mL of methanol/ethylene glycol (50:50 vol/vol) to prepare a dye solution at a concentration of 5 mM. This solution was filtered before use. Separate amounts of salmon sperm DNA were weighed and dissolved in PBS to obtain PBS buffers containing 3 mg/mL, 1 mg/mL, 0.3 mg/mL, 0.1 mg/mL of DNA. 2 μL aliquots of the prepared 5 mM dye solution were accurately measured and respectively combined in 1 mL of PBS with 1 μL of the PBS buffers containing different concentrations of DNA. After reacting for a period of time, the complexes were detected for their emission spectra at the selected excitation wavelength (which the skilled artisan would understand is the maximum absorption wavelength of the dye. See, e.g., Table 1). The detection was performed at room temperature. The instrument used was fluorescence spectrophotometer Model FL-4500. […] The detection procedures followed were those described in Example 10 and Example 11. The fluorescence spectra for the complexes of Dye-3 and different concentrations of DNA or RNA are shown in FIG. 6 and FIG. 7, respectively. The comparisons of fluorescence intensity for Dye-3 before and after it is bound with DNA or with RNA in PBS are shown in FIG. 8 and FIG. 9, respectively.

[2] = tested on: soft-shelled turtle (Trionyx sinensis) liver RNA; experiment: Fluorescence intensity of dye in PBS containing soft-shelled turtle liver RNA; assay type: binding; settings: for Relative fluorescence intensity, after binding RNA / Maximum excitation peak of the dye/RNA complexes / Relative fluorescence intensity, before binding RNA: in PBS; for Relative fluorescence intensity, after binding RNA: bound with soft-shelled turtle liver RNA; for Maximum excitation peak of the dye/RNA complexes: room temperature; for Relative fluorescence intensity, before binding RNA: without RNA; for Ratio of increase in fluorescence (after vs before binding): soft-shelled turtle liver RNA in PBS; for Fluorescence emission strength of the dye/RNA complexes: with increase in RNA concentration / on complex formation, PBS
Protocol: A certain amount of Dye-1 was accurately weighed and sufficiently dissolved in 2.5 mL of methanol/ethylene glycol (50:50 vol/vol) to prepare a dye solution at a concentration of 5 mM. This solution was filtered before use. Separate amounts of freshly prepared soft-shelled turtle (Trionyx sinensis) liver RNA were weighed and dissolved in PBS to obtain PBS buffers containing 100 μg/mL, 30 μg/mL, 10 μg/mL, 3 μg/mL of RNA. 2 μL aliquots of the prepared 5 mM dye solution were accurately measured and respectively combined in 1 mL of PBS with 1 μL of the PBS buffers containing different concentrations of RNA. After reacting for a period of time, the complexes were detected for their emission spectra at the selected excitation wavelength (which the skilled artisan would understand is the maximum absorption wavelength of the dye. See, e.g., Table 1). The detection temperature was at room temperature. The instrument used was fluorescence spectrophotometer Model FL-4500. […] The detection procedures followed were those described in Example 10 and Example 11. The fluorescence spectra for the complexes of Dye-3 and different concentrations of DNA or RNA are shown in FIG. 6 and FIG. 7, respectively. The comparisons of fluorescence intensity for Dye-3 before and after it is bound with DNA or with RNA in PBS are shown in FIG. 8 and FIG. 9, respectively.

[3] = after standing at 0° C. for 48 hours
[4] = after standing at 20° C. for 48 hours
[5] = after standing at 40° C. for 48 hours
[6] = after standing at 60° C. for 48 hours

| Structure (SMILES) | Maximum absorption peak of the compounds disclosed [1, 3] [nm] | Maximum absorption peak of the compounds disclosed [1, 4] [nm] | Maximum absorption peak of the compounds disclosed [1, 5] [nm] | Maximum absorption peak of the compounds disclosed [1, 6] [nm] | Maximum absorption peak [1] [nm] | Relative fluorescence intensity, after binding DNA (salmon sperm DNA; in PBS) | Maximum excitation peak of the dye/DNA complexes (salmon sperm DNA; in PBS) | Ratio of increase in fluorescence (after vs before binding) (salmon sperm DNA) | Fluorescence emission strength of the dye/DNA complexes (salmon sperm DNA) | Relative fluorescence intensity, after binding RNA [2] | Maximum excitation peak of the dye/RNA complexes [2] | Relative fluorescence intensity, before binding RNA [2] | Ratio of increase in fluorescence (after vs before binding) [2] | Fluorescence emission strength of the dye/RNA complexes [2] | Shift of the position of the maximum absorption peak as a function of temperature ([1]; 0° C., 20° C., 40° C. and 60° C. for 48 hours) | Relative fluorescence intensity, before binding DNA (salmon sperm DNA; in PBS, without salmon sperm DNA) |
| --- | --- | --- | --- | --- | --- | --- | --- | --- | --- | --- | --- | --- | --- | --- | --- | --- |
| OCCN1C=C/C(=C\C=C\c2sc3ccc(Cl)cc3[n+]2CCO)c2ccccc21 [Dye-1] | 638 | 638 | 638 | 638 | 638 | 63.29 | about 660 nm | 84 | increased rapidly | 16.79 | about 660 nm | 0.75 | 22.4 | increased rapidly |  |  |
| CCN1C=C/C(=C\C=C\c2sc3ccccc3[n+]2CCOC(C)=O)c2ccc(Cl)cc21 [Dye-2] | 639 | 639 | 639 | 639 | 639 |  |  |  |  |  |  |  |  |  |  |  |
| CC[n+]1c(/C=C/C=C2\C=CN(CCO)c3ccccc32)sc2ccc(Cl)cc21 [Dye-3] |  |  |  |  | 640 | 97.56 | > 655 nm | 146 | increased rapidly | 23.94 | > 655 nm | 0.67 | 35.7 | increased rapidly | did not shift | 0.67 |
| CCN1C=C/C(=C\C=C\c2sc3ccccc3[n+]2CCO)c2ccc(Cl)cc21 [Dye-4] | 639 | 639 | 639 | 639 | 639 |  |  |  |  |  |  |  |  |  |  |  |
| CC[n+]1c(/C=C/C=C2\C=CN(CCO)c3ccccc32)sc2ccc(Br)cc21 [Dye-5] | 640 | 640 | 640 | 640 | 640 |  |  |  |  |  |  |  |  |  |  |  |
| OCCN1C=C/C(=C\C=C\c2sc3ccccc3[n+]2CCO)c2ccc(Br)cc21 [Dye-6] | 638 | 638 | 638 | 638 | 638 |  |  |  |  |  |  |  |  |  |  |  |
